What was measured:
Format in all cases: binding
KRAS D92C/G12D = biological target: T1, KRAS D92C/G12D (Homo sapiens, UniProt P01116, D92C/G12D); test: Covalent modification of KRAS mutant by competition probes (TOF mass spectrometry, Agilent RapidFire)
T1 construct: made in house
Protocol: (§1) KRAS mutant proteins were produced with one substituted amino acid selected from E62C, D92C, and H95C and with either glycine at the 12 position (WT) or an additional mutation to aspartic acid at the 12 position (G12D) relative to SEQ ID NO: 1 when optimally aligned. These mutations are depicted on an X-ray crystal structure in FIG. 2. These mutants were tested for reactivity (e.g., covalent modification of the KRAS mutant) with a panel of competition probes that bind the Switch II binding pocket and covalently modify the substituted amino acid with appropriately placed electrophiles based on modeling/docking studies. Screening was carried out by time-of-flight (TOF) mass spectrometry on an Agilent RapidFire system. […] Competition probe reactivity with the G12D mutant or other 12 position mutants may be optimized by iterative structural modification and testing.

KRAS E62C/G12D = biological target: T2, KRAS E62C/G12D (Homo sapiens, UniProt P01116, E62C/G12D); test: as above
T2 construct: made in house
Protocol: as §1

KRAS D92C/WT = biological target: T3, KRAS D92C/WT (Homo sapiens, UniProt P01116, D92C); test: as above
T3 construct: made in house
Protocol: as §1

KRAS H95C/G12D = biological target: T4, KRAS H95C/G12D (Homo sapiens, UniProt P01116, G12D/H95C); test: as above
T4 construct: made in house
Protocol: as §1

KRAS E62C/WT = biological target: T5, KRAS E62C/WT (Homo sapiens, UniProt P01116, E62C); test: as above
T5 construct: made in house
Protocol: as §1

KRAS H95C/WT = biological target: T6, KRAS H95C/WT (Homo sapiens, UniProt P01116, H95C); test: as above
T6 construct: made in house
Protocol: as §1

KRAS G12C = biological target: T7, KRAS G12C (Homo sapiens, UniProt P01116, G12C); test: Rate constant of covalent reaction of competition probes with KRAS mutant (mass spectrometry)
T7 construct: made in house
Protocol: (§2) RALA mutant proteins were produced with one mutation to cysteine at the 23 position (G23C) relative to SEQ ID NO: 8 when optimally aligned. KRAS mutant proteins were produced with one mutation to cysteine at the 12 position (G12C) relative to SEQ ID NO: 1 when optimally aligned. The RALA and KRAS mutants were tested for reactivity (e.g., covalent modification of the mutant) with a panel of competition probes that bind the Switch II binding pocket and covalently modify the substituted amino acid with appropriately placed electrophiles based on modeling/docking studies. One such inhibitor covalently bound to RAS (via G12) is depicted in FIG. 2. Screening was carried out by mass spectrometry on an Agilent RapidFire or ThermoScientific Q Exactive system.

RALA G23C = biological target: T8, RALA G23C (Homo sapiens, UniProt P11233, G23C); test: Rate constant of covalent reaction of competition probes with RALA mutant (mass spectrometry)
T8 construct: (residues 11-183, either WT or G23C); hexahistidine (TEV-cleavable); made in house; host or cells: Escherichia coli BL21 (DE)
T8 sequence (P11233 11-183 G23C): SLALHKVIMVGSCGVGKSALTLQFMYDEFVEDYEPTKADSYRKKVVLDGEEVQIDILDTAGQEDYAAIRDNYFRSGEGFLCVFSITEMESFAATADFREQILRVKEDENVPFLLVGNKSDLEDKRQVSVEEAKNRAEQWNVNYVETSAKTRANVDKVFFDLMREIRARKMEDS
Protocol: Hexahistidine-tagged recombinant human RalA (“hexahistidine” disclosed as SEQ ID NO: 49) (residues 11-183, either WT or G23C) was transformed into Escherichia coli (BL21 (DE)). After the bacterial grew to an OD(600) of 0.4-0.6 in Terrific Broth containing 30 mg/L kanamycin at 37° C., induction was carried out at 18° C. using 0.5 mM IPTG and growth was continued at 18° C. for about 18 h. The bacteria were harvested by centrifugation and the obtained pellet was either stored at −80° C. or used freshly for the subsequent steps.
as §2

C=CS(=O)(=O)NC1CCCN(c2nc(N3CCN(C(C)=O)CC3)c3cc(Cl)c(-c4c(O)cccc4F)c(F)c3n2)C1 (centres unmarked) [CP-001]
% Covalent Modification with Indicated Protein at 6 hr, D92C/G12D (KRAS D92C/G12D; probe 30 μM): 12% | % Covalent Modification with Indicated Protein at 6 hr, E62C/G12D (KRAS E62C/G12D; probe 30 μM): 4% | % Covalent Modification with Indicated Protein at 6 hr, D92C/WT (KRAS D92C/WT; probe 30 μM): 97% | % Covalent Modification with Indicated Protein at 6 hr, H95C/G12D (KRAS H95C/G12D; probe 30 μM): 60% | % Covalent Modification with Indicated Protein at 6 hr, E62C/WT (KRAS E62C/WT; probe 30 μM): 72%

C=CC(=O)NC1CCCN(c2nc(N3CCN(C(C)=O)CC3)c3cc(Cl)c(-c4c(O)cccc4F)c(F)c3n2)C1 (centres unmarked) [CP-002]
% Covalent Modification with Indicated Protein at 6 hr, E62C/G12D (KRAS E62C/G12D; probe 100 μM): 1% | % Covalent Modification with Indicated Protein at 6 hr, D92C/WT (KRAS D92C/WT; probe 100 μM): 2% | % Covalent Modification with Indicated Protein at 6 hr, H95C/G12D (KRAS H95C/G12D; probe 100 μM): 5% | % Covalent Modification with Indicated Protein at 6 hr, E62C/WT (KRAS E62C/WT; probe 100 μM): 6%

C=CS(=O)(=O)NC1CCN(c2nc(N3CCN(C(C)=O)CC3)c3cc(Cl)c(-c4c(O)cccc4F)c(F)c3n2)C1 (centres unmarked) [CP-003]
% Covalent Modification with Indicated Protein at 6 hr, D92C/G12D (KRAS D92C/G12D; probe 30 μM): 8% | % Covalent Modification with Indicated Protein at 6 hr, E62C/G12D (KRAS E62C/G12D; probe 30 μM): 11% | % Covalent Modification with Indicated Protein at 6 hr, D92C/WT (KRAS D92C/WT; probe 30 μM): 89% | % Covalent Modification with Indicated Protein at 6 hr, H95C/G12D (KRAS H95C/G12D; probe 30 μM): 12% | % Covalent Modification with Indicated Protein at 6 hr, E62C/WT (KRAS E62C/WT; probe 30 μM): 86%

C=CC(=O)NC1CCN(c2nc(N3CCN(C(C)=O)CC3)c3cc(Cl)c(-c4c(O)cccc4F)c(F)c3n2)C1 (centres unmarked) [CP-004]
% Covalent Modification with Indicated Protein at 6 hr, E62C/G12D (KRAS E62C/G12D; probe 100 μM): 1% | % Covalent Modification with Indicated Protein at 6 hr, D92C/WT (KRAS D92C/WT; probe 100 μM): 4% | % Covalent Modification with Indicated Protein at 6 hr, H95C/G12D (KRAS H95C/G12D; probe 100 μM): 2% | % Covalent Modification with Indicated Protein at 6 hr, E62C/WT (KRAS E62C/WT; probe 100 μM): 3%

C=CS(=O)(=O)N1CCC(Nc2nc(N3CCN(C(C)=O)CC3)c3cc(Cl)c(-c4c(O)cccc4F)c(F)c3n2)CC1 [CP-005]
% Covalent Modification with Indicated Protein at 6 hr, D92C/G12D (KRAS D92C/G12D; probe 30 μM): 11% | % Covalent Modification with Indicated Protein at 6 hr, E62C/G12D (KRAS E62C/G12D; probe 30 μM): 6% | % Covalent Modification with Indicated Protein at 6 hr, D92C/WT (KRAS D92C/WT; probe 30 μM): 28% | % Covalent Modification with Indicated Protein at 6 hr, H95C/WT (KRAS H95C/WT; probe 30 μM): 21% | % Covalent Modification with Indicated Protein at 6 hr, H95C/G12D (KRAS H95C/G12D; probe 30 μM): 12% | % Covalent Modification with Indicated Protein at 6 hr, E62C/WT (KRAS E62C/WT; probe 30 μM): 82%

C=CC(=O)N1CCC(Nc2nc(N3CCN(C(C)=O)CC3)c3cc(Cl)c(-c4c(O)cccc4F)c(F)c3n2)C1 (centres unmarked) [CP-006]
% Covalent Modification with Indicated Protein at 6 hr, D92C/G12D (KRAS D92C/G12D; probe 30 μM): 5% | % Covalent Modification with Indicated Protein at 6 hr, E62C/G12D (KRAS E62C/G12D; probe 30 μM): 2% | % Covalent Modification with Indicated Protein at 6 hr, D92C/WT (KRAS D92C/WT; probe 30 μM): 93% | % Covalent Modification with Indicated Protein at 6 hr, H95C/WT (KRAS H95C/WT; probe 30 μM): 19% | % Covalent Modification with Indicated Protein at 6 hr, H95C/G12D (KRAS H95C/G12D; probe 30 μM): 4% | % Covalent Modification with Indicated Protein at 6 hr, E62C/WT (KRAS E62C/WT; probe 30 μM): 14%

C=CS(=O)(=O)N1CCC(Nc2nc(N3CCN(C(C)=O)CC3)c3cc(Cl)c(-c4c(O)cccc4F)c(F)c3n2)C1 (centres unmarked) [CP-007]
% Covalent Modification with Indicated Protein at 6 hr, D92C/G12D (KRAS D92C/G12D; probe 10 μM): 29% | % Covalent Modification with Indicated Protein at 6 hr, E62C/G12D (KRAS E62C/G12D; probe 10 μM): 19% | % Covalent Modification with Indicated Protein at 6 hr, D92C/WT (KRAS D92C/WT; probe 10 μM): 99% | % Covalent Modification with Indicated Protein at 6 hr, H95C/WT (KRAS H95C/WT; probe 10 μM): 43% | % Covalent Modification with Indicated Protein at 6 hr, H95C/G12D (KRAS H95C/G12D; probe 10 μM): 17% | % Covalent Modification with Indicated Protein at 6 hr, E62C/WT (KRAS E62C/WT; probe 10 μM): 96%

C=CC(=O)N1CC(N2CCN(C(=O)CNc3cc(C4(C)CC4)c(Cl)cc3O)CC2)C1 [CP-008]
Rate Constant for Reaction with Indicated Protein, KRAS G12C (KRAS G12C): 76 M⁻¹ s⁻¹ | Rate Constant for Reaction with Indicated Protein, RALA G23C (RALA G23C): <0.2 M⁻¹ s⁻¹

C=CC(=O)N1CCN(c2ccc(-c3cc(O)ccc3Cl)cc2C#N)CC1 [CP-009]
Rate Constant for Reaction with Indicated Protein, KRAS G12C (KRAS G12C): 5.8 M⁻¹ s⁻¹ | Rate Constant for Reaction with Indicated Protein, RALA G23C (RALA G23C): <0.2 M⁻¹ s⁻¹

C=CC(=O)N1CCN(C(=O)c2cc(-c3cc(Cl)ccc3Cl)c(Cl)cc2O)CC1 [CP-010]
Rate Constant for Reaction with Indicated Protein, KRAS G12C (KRAS G12C): 2.3 M⁻¹ s⁻¹ | Rate Constant for Reaction with Indicated Protein, RALA G23C (RALA G23C): 2.9 M⁻¹ s⁻¹

C=CC(=O)N1CCN(c2ncnc3cc(Cl)c(-c4ccccc4Cl)cc23)CC1 [CP-011]
Rate Constant for Reaction with Indicated Protein, KRAS G12C (KRAS G12C): 1.1 M⁻¹ s⁻¹ | Rate Constant for Reaction with Indicated Protein, RALA G23C (RALA G23C): 5.0 M⁻¹ s⁻¹
